Experimental data as given in patent publication US20250090540A1, “PI3K-ALPHA INHIBITORS AND METHODS OF USE THEREOF” (Relay Therapeutics, Inc., priority 2021, published 2025).
Where two headings read alike, the source gives them in different places.

Key:
H1047R PIK3CA enzyme = H1047R PIK3CA enzyme (Homo sapiens, UniProt P42336, H1047R); experiment: ADP-Glo Biochemical PIK3CA Kinase Assay
cells = settings: Homo sapiens, MCF-10A, read-out: MCF10A I50
[1] = ADP-Glo biochemical PIK3CA kinase assay

H1047R PIK3CA enzyme, sequence (P42336 whole entry H1047R): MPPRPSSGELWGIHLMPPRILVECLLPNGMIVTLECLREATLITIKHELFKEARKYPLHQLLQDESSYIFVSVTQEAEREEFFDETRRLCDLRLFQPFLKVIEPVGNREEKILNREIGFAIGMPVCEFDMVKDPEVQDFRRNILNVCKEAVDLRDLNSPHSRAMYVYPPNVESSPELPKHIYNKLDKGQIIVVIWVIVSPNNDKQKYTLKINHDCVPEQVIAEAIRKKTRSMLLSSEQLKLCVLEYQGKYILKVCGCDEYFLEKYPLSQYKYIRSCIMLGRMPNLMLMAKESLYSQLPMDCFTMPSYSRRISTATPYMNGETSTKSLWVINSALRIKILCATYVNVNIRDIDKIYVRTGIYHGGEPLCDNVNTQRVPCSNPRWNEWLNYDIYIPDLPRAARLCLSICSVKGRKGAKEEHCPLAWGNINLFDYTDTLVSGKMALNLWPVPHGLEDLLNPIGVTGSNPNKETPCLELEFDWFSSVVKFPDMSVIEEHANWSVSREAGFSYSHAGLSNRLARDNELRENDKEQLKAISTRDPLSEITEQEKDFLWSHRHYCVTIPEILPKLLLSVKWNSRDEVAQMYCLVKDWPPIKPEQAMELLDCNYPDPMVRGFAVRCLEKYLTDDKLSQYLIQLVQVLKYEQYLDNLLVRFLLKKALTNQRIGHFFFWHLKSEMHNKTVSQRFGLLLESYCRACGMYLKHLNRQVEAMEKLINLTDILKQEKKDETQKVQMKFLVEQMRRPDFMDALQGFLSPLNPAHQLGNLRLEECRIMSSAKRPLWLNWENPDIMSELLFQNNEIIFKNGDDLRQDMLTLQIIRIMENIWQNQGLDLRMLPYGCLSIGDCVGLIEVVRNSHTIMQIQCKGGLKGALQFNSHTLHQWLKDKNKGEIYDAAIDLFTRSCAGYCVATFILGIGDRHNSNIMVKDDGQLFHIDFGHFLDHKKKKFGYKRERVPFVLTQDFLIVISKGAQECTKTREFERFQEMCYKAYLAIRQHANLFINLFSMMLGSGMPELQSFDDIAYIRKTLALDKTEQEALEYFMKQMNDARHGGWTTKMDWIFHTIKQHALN
H1047R PIK3CA enzyme, sequence (P27986 whole entry partner): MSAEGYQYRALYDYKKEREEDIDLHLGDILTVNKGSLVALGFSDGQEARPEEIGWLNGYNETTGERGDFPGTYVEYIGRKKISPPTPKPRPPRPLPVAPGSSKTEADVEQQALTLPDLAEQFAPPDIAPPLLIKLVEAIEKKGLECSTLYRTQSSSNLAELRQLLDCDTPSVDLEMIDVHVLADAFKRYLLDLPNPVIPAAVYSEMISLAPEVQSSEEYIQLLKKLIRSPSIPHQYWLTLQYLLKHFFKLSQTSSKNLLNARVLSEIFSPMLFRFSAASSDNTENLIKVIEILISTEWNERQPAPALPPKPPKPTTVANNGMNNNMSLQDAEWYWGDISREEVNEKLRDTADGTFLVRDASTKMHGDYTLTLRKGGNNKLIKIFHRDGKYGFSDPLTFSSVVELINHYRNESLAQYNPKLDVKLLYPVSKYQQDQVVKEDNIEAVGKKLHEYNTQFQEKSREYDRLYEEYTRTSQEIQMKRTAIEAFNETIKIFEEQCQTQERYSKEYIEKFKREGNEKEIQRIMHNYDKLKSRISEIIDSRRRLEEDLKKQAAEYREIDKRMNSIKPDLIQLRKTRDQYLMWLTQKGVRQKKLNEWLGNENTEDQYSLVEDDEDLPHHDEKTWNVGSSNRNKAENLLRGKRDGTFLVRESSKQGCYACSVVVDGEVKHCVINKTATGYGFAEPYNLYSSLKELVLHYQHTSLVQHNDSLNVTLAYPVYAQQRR

Row | Compound | IC50 (H1047R PIK3CA enzyme; [1]) | IC50 (cells) | IC50 (H1047R PIK3CA enzyme)
1 | Cc1ccccc1Nc1ncc(C(=O)NCC(O)C2CCCC2)cc1NC(=O)c1csc2ccccc12 (stereo not shown) [I-610] | 100 to 500 nM | 10 to 36 µM | 
2 | CCn1ccc(C)c(CNC(=O)c2cnc(Nc3ccccc3C)c(NC(=O)c3csc4ccccc34)c2)c1=O [I-611] | 100 to 500 nM | 5 to 10 µM | 
3 | Cc1ccccc1Nc1ncc(C(=O)NC2(C(N)=O)CC2)cc1NC(=O)c1csc2ccccc12 [I-612] | 100 to 500 nM | < 1 µM | 
4 | Cc1ccccc1Nc1ncc(C(=O)N2CC(O)C2)cc1NC(=O)c1csc2ccccc12 [I-613] | 100 to 500 nM | 10 to 36 µM | 
5 | Cc1ccccc1Nc1ncc(C(=O)NC(C)c2nnc3ccccn23)cc1NC(=O)c1csc2ccccc12 (stereo not shown) [I-616] | ≤ 100 nM | 1 to 5 µM | 
6 | Cc1ccccc1Nc1ncc(C(=O)N[C@H]2COC[C@@H]2O)cc1NC(=O)c1csc2ccccc12 [I-618] | 100 to 500 nM | 1 to 5 µM | 
7 | Cc1ccccc1Nc1ncc(C(=O)N[C@H]2COc3ccccc3C2)cc1NC(=O)c1csc2ccccc12 [I-619] | 100 to 500 nM | 36 to 100 µM | 
8 | Cc1ccccc1Nc1ncc(C(=O)NCC2CCCOC2)cc1NC(=O)c1csc2ccccc12 (stereo not shown) [I-621] | 100 to 500 nM | 10 to 36 µM | 
9 | Cc1ccccc1Nc1ncc(C(=O)N[C@H]2CCOC2)cc1NC(=O)c1csc2ccccc12 [I-622] | 100 to 500 nM | 1 to 5 µM | 
10 | Cc1ccccc1Nc1ncc(C(=O)Nc2cnn(C)c2)cc1NC(=O)c1csc2ccccc12 [I-624] | 100 to 500 nM | < 1 µM | 
11 | Cc1ccn2c(CNC(=O)c3cnc(Nc4ccccc4C)c(NC(=O)c4csc5ccccc45)c3)nnc2c1 [I-625] | 100 to 500 nM | 10 to 36 µM | 
12 | Cc1ccccc1Nc1ncc(C(=O)N[C@@H]2CC[C@@H](O)C2)cc1NC(=O)c1csc2ccccc12 [I-626] | 100 to 500 nM | 1 to 5 µM | 
13 | Cc1ccccc1Nc1ncc(C(=O)N2CCn3nccc32)cc1NC(=O)c1csc2ccccc12 [I-627] | 1000 to 10000 nM | 10 to 36 µM | 
14 | Cc1ccccc1Nc1cccnc1NC(=O)c1csc2ccccc12 [I-635] | 100 to 500 nM | 36 to 100 µM | 
15 | CNC(=O)c1cnc(Nc2ccccc2C)c(NC(=O)Cc2cnc3ccccn23)c1 [I-652] | 100 to 500 nM | 10 to 36 µM | 
16 | CNC(=O)c1cnc(N)c(NC(=O)c2csc3ccccc23)c1 [I-676] | 500 to 1000 nM | 10 to 36 µM | 

Row | Compound | IC50 (H1047R PIK3CA enzyme; [1]) | IC50 (cells) | IC50 (H1047R PIK3CA enzyme)
17 | CNC(=O)c1cnc(Nc2ccccc2C)c(NC(=O)c2cc(F)c(F)c(C(F)(F)F)c2)c1 [I-677] | 1000 to 10000 nM | 10 to 36 µM | 
18 | CNC(=O)c1cnc(Nc2cccc3ccn(C)c23)c(NC(=O)c2csc3ccccc23)c1 [I-680] | 1000 to 10000 nM | 10 to 36 µM | 
19 | Cc1ccccc1Nc1ncc(C(=O)N[C@H]2C[C@H](C(=O)O)C2)cc1NC(=O)c1csc2ccccc12 [I-685] | 500 to 1000 nM | 10 to 36 µM | 
20 | CC(NC(=O)c1cnc(N)c(NC(=O)c2csc3ccccc23)c1)c1nnc2ccccn12 (stereo not shown) [I-691] | 100 to 500 nM | 5 to 10 µM | 
21 | CNC(=O)[C@H]1C[C@@H](NC(=O)c2cnc(Nc3ccccc3C)c(NC(=O)c3csc4ccccc34)c2)C1 [I-692] | 100 to 500 nM | 10 to 36 µM | 
22 | Cc1ccccc1Nc1ncc(C(=O)NCc2cccnc2)cc1NC(=O)c1cc(F)cc(C(F)(F)F)c1 [I-700] | 100 to 500 nM | 10 to 36 µM | 
23 | CNC(=O)c1cnc(NC2CCOc3ccc(F)cc32)c(NC(=O)c2csc3ccccc23)c1 (stereo not shown) [I-745] | 100 to 500 nM | 5 to 10 µM | 
24 | Cc1ccccc1Nc1ncc(C(=O)NCC2(C#N)CC2)cc1NC(=O)c1cc(F)cc(C(F)(F)F)c1 [I-750] | 100 to 500 nM | 5 to 10 µM | 
25 | CNC(=O)c1cnc(Nc2ccccc2C)c(NC(=O)c2cc(C)nc(C(F)(F)F)c2)c1 [I-765] | 100 to 500 nM | 1 to 5 µM | 
26 | CNC(=O)c1cnc(Nn2nccc2C(F)(F)F)c(NC(=O)c2csc3ccccc23)c1 [I-772] | ≤ 100 nM | 1 to 5 µM | 
27 | CNC(=O)c1cc(F)c(Nc2ccccc2C)c(NC(=O)c2csc3ccccc23)c1 [I-773] | ≤ 100 nM | < 1 µM | 
28 | Cc1ccccc1Nc1c(F)cc(C(=O)NC2CS(=O)(=O)C2)cc1NC(=O)c1csc2ccccc12 [I-774] | ≤ 100 nM | 10 to 36 µM | 
29 | CC(C)(O)c1cnc(Nc2cc(F)ccc2Cl)c(NC(=O)c2nsc3ccccc23)c1 [I-783] | 100 to 500 nM | 5 to 10 µM | 
30 | CNC(=O)c1ccc(Nc2cc(F)ccc2Cl)c(NC(=O)c2cc(F)cc(C(F)(F)F)c2)n1 [I-802] |  | 1 to 5 µM | 100 to 500 nM
31 | CNC(=O)c1cnc(Nc2cc(CO)ccc2Cl)c(NC(=O)c2cc(F)cc(C(F)(F)F)c2)c1 [I-809] |  | 1 to 5 µM | 100 to 500 nM
32 | Cc1ccccc1Nc1nc2ccccc2cc1NC(=O)N1CC(O)c2ccccc21 (stereo not shown) [I-828, 3-hydroxy-N-(2-(o-tolylamino)quinolin-3-yl)indoline-1-carboxamide] |  | 5 to 10 µM | 500 to 1000 nM
